Data set [1] is described as follows: log P determination by HPLC (EEC Directive 79/831 Annex V.A8). It counts as physicochemical. The protocol:
The measurements were carried out using an Agilent 1100 LC system with a 50*4.6 Zorbax Eclipse C18 1.8 μm column (oven temperature 55° C., flow rate 2.0 ml/min).
The following mobile phases were used:
Mobile phase A: acetonitrile+1000 μl of formic acid/l
Mobile phase B: Millipore water+900 μl of formic acid/l

For data set [2], the system named is larvae of the mustard beetle (Phaedon cochleariae). The data set is described as follows: Phaedon test (PHAECO spray treatment). To be noted: Phaedon cochleariae, in Brassica rapa, foliar, read-out: effect in % (beetle larvae killed).
The subject of data set [3] is caterpillars of the armyworm (Spodoptera frugiperda). The data set is described as follows: Spodoptera frugiperda test (SPODFR spray treatment). As to conditions: Spodoptera frugiperda, foliar, read-out: effect in % (caterpillars killed). The format is in vivo. The text has this:
(§1) Solvent: 78.0 parts by weight of acetone

Data set [4] concerns green peach aphid (Myzus persicae). Nature of the data set: Myzus test (MYZUPE spray treatment). It counts as in vivo. As to conditions: Myzus persicae, foliar, read-out: effect in % (aphids killed).
Excerpt: Solvent: 78 parts by weight of acetone
as §1

The mark [5] stands for this setting: reversed-phase HPLC, Zorbax Eclipse C18 column, determined by HPLC according to EEC Directive 79/831 Annex V.A8, read-out: log P.
The mark [6] stands for this setting: application rate 100 g/ha, maize leaf discs.
Setting [7] is: application rate 100 g/ha, Chinese cabbage leaf discs.
Where [8] appears, read: reversed-phase HPLC, Zorbax Eclipse C18 column, by HPLC according to EEC Directive 79/831 Annex V.A8, read-out: log P.

The values that follow come from patent US8324390B2, “Tetrazole-substituted anthranilamides as pesticides” (Bayer CropScience AG, priority 2008, dated 2012).

Where two headings read alike, the source gives them in different places.

In data set [1] (log P), `CSC[C@H](C)NC(=O)c1cc(Br)cc(C)c1NC(=O)c1cc(Cn2nnc(C(F)(F)F)n2)nn1-c1ncccc1Cl` [Example 42] yielded a chromatographic logP of 3.77. The pest or weed control at 100 g/ha in data set [2], in data set [3] (in Zea mays) and in data set [4] (in Brassica rapa) was no less than 80% each time.
The compound `Cc1cc(C#N)cc(C(N)=O)c1NC(=O)c1cc(Cn2nnc(C(F)(F)F)n2)nn1-c1ncccc1Cl` [Example 17] displayed a chromatographic logP in data set [1] (log P) of 2.45. Further, the pest or weed control at 100 g/ha in data set [2], in data set [3] (in Zea mays) and in data set [4] (in Brassica rapa) was no less than 80% throughout.
Turning to `CCNC(=O)c1cc(I)cc(C)c1NC(=O)c1cc(Cn2nnnc2C(F)(F)F)nn1-c1ncccc1Br` [Example 503], the chromatographic logP in data set [1] (setting [5]) worked out at 3.16. Moreover, the pest or weed control at 100 g/ha in data set [2], in data set [3] (setting [6]) and in data set [4] (setting [7]) was no less than 80% each time.
`Cc1cc(Cl)cc(C(=O)NC2CC2)c1NC(=O)c1cc(Cn2nnnc2C(F)F)nn1-c1ncccc1Cl` [Example 461] gave a chromatographic logP in data set [1] (log P) of 2.5. For the same compound, the pest or weed control at 100 g/ha in data set [2] and in data set [3] (in Zea mays) was no less than 80% each time. Further, the pest or weed control at 20 g/ha in data set [4] (in Brassica rapa) is no less than 80%.
`Cc1cc(I)cc(C(=O)NCC#N)c1NC(=O)c1cc(Cn2nnc(C(F)F)n2)nn1-c1ncccc1Cl` [Example 281] yielded a chromatographic logP in data set [1] (log P) of 2.68. The pest or weed control at 100 g/ha in data set [2], in data set [3] (in Zea mays) and in data set [4] (in Brassica rapa) was no less than 80% each time.
Turning to `Cc1cc(C#N)cc(C(=O)NC2CCC2)c1NC(=O)c1cc(Cn2nnnc2C(F)(F)F)nn1-c1ncccc1Cl` [Example 186], in data set [1] (log P), the chromatographic logP is 2.83. Also, the pest or weed control at 100 g/ha in data set [2], in data set [3] (in Zea mays) and in data set [4] (in Brassica rapa) was no less than 80% each time.
Consider `Cc1cc(C#N)cc(C(=O)NCC#N)c1NC(=O)c1cc(Cn2nnc(C(F)(F)F)n2)nn1-c1ccccc1Cl` [Example 540], for which, in data set [1] (setting [5]), the chromatographic logP amounted to 2.97. For the same compound, the pest or weed control at 100 g/ha in data set [2], in data set [3] (setting [6]) and in data set [4] (setting [7]) was no less than 80% in each case.
For the compound `CNC(=O)c1cc(I)cc(C)c1NC(=O)c1cc(Cn2nnnc2C(F)(F)F)nn1-c1ncccc1C(F)(F)F` [Example 452], the chromatographic logP in data set [1] (setting [5]) amounted to 3.07. Besides, the pest or weed control at 100 g/ha in data set [2], in data set [3] (setting [6]) and in data set [4] (setting [7]) was no less than 80% each time.
Take `Cc1cc(Br)cc(C(=O)NC(C)C)c1NC(=O)c1cc(Cn2nnnc2C(F)(F)F)nn1-c1ncccc1Br` [Example 501]: in data set [1] (setting [5]), the chromatographic logP was found to be 3.27. Moreover, the pest or weed control at 100 g/ha in data set [2], in data set [3] (setting [6]) and in data set [4] (setting [7]) was no less than 80% throughout.
Regarding `Cc1cc(Cl)cc(C(=O)NC(C)C)c1NC(=O)c1cc(Cn2nnnc2C(F)(F)F)nn1-c1ncccc1Br` [Example 485], the chromatographic logP in data set [1] (setting [5]) came to 3.14. The pest or weed control at 100 g/ha in data set [2], in data set [3] (setting [6]) and in data set [4] (setting [7]) was no less than 80% in each case.
On to `Cc1cc(C#N)cc(C(=O)NC(C)(C)C)c1NC(=O)c1cc(Cn2nnc(C(F)(F)F)n2)nn1-c1ncccc1F` [Example 407], for which the chromatographic logP in data set [1] (setting [5]) was found to be 3.2. Also, the pest or weed control at 100 g/ha in data set [2], in data set [3] (setting [6]) and in data set [4] (setting [7]) was no less than 80% each time.
`CCNC(=O)c1cc(C#N)cc(C)c1NC(=O)c1cc(Cn2nnc(C(F)F)n2)nn1-c1ncccc1Cl` [Example 265] showed a chromatographic logP in data set [1] (log P) of 2.36. The pest or weed control at 100 g/ha in data set [2], in data set [3] (in Zea mays) and in data set [4] (in Brassica rapa) was no less than 80% each time.
On to `Cc1cc(Cl)cc(C(=O)NCC#N)c1NC(=O)c1cc(Cn2nnc(C(F)(F)C(F)(F)C(F)(F)F)n2)nn1-c1ncccc1Cl` [Example 8], for which the chromatographic logP in data set [1] (by HPLC according to EEC Directive 79/831 Annex V.A8, read-out: log P) is 3.65. Further, the pest or weed control at 100 g/ha in data set [2], in data set [3] (in Zea mays) and in data set [4] (in Brassica rapa) was no less than 80% throughout.
For the compound `Cc1cc(Cl)cc(C(=O)NC(C)C2CC2)c1NC(=O)c1cc(Cn2nnc(C(F)(F)F)n2)nn1-c1ncccc1Cl` (stereo not shown) [Example 30], in data set [1] (log P), the chromatographic logP was found to be 3.79. The pest or weed control at 100 g/ha in data set [2], in data set [3] (in Zea mays) and in data set [4] (in Brassica rapa) was no less than 80% throughout.
As for `Cc1cc(Br)cc(C(=O)NC(C)(C)C)c1NC(=O)c1cc(Cn2nnc(C(F)(F)F)n2)nn1-c1ncccc1Cl` [Example 114], the chromatographic logP in data set [1] (log P) was 4. The pest or weed control at 100 g/ha in data set [2], in data set [3] (in Zea mays) and in data set [4] (in Brassica rapa) was no less than 80% each time.
With `CCNC(=O)c1cc(C#N)cc(C)c1NC(=O)c1cc(Cn2nnc(C(F)(F)C(F)(F)F)n2)nn1-c1ccccc1Cl` [Example 532], the chromatographic logP in data set [1] (setting [5]) was 3.87. Further, the pest or weed control at 100 g/ha in data set [2], in data set [3] (setting [6]) and in data set [4] (setting [7]) was no less than 80% each time.
Turning to `NC(=O)c1cc(Cl)cc(Cl)c1NC(=O)c1cc(Cn2nnc(C(F)(C(F)(F)F)C(F)(F)F)n2)nn1-c1ncccc1Cl` [Example 391], the chromatographic logP in data set [1] (log P) is 3.41. Besides, the pest or weed control at 100 g/ha in data set [2], in data set [3] (in Zea mays) and in data set [4] (in Brassica rapa) was no less than 80% each time.
Take `Cc1cc(Cl)cc(C(N)=O)c1NC(=O)c1cc(Cn2nnc(C(F)(F)F)n2)nn1-c1ncccc1C(F)(F)F` [Example 238]: the chromatographic logP in data set [1] (setting [8]) is 2.97. Further, the pest or weed control at 100 g/ha in data set [2], in data set [3] (setting [6]) and in data set [4] (setting [7]) was no less than 80% throughout.
`Cc1cc(C#N)cc(C(=O)NOC(C)C)c1NC(=O)c1cc(Cn2nnc(C(F)(F)F)n2)nn1-c1ncccc1Cl` [Example 398]: the chromatographic logP in data set [1] (log P) was 2.88. The pest or weed control at 100 g/ha in data set [2], in data set [3] (in Zea mays) and in data set [4] (in Brassica rapa) was no less than 80% in each case.
On to `Cc1cc(Cl)cc(C(=O)NC(C)(C)C)c1NC(=O)c1cc(Cn2nnc(C(F)(F)F)n2)nn1-c1ncccc1Br` [Example 329], for which the chromatographic logP in data set [1] (setting [8]) came to 3.88. In addition, the pest or weed control at 100 g/ha in data set [2] and in data set [3] (setting [6]) was no less than 80% each time. For the same compound, the pest or weed control at 20 g/ha in data set [4] (application rate 20 g/ha, Chinese cabbage leaf discs) was no less than 80%.
Compound `NC(=O)c1cc(Cl)cc(Cl)c1NC(=O)c1cc(Cn2nnc(C(F)F)n2)nn1-c1ncccc1Cl` [Example 305] came in with a chromatographic logP in data set [1] (log P) of 2.31. Besides, the pest or weed control at 100 g/ha in data set [2], in data set [3] (in Zea mays) and in data set [4] (in Brassica rapa) was no less than 80% in each case.
Regarding `CSC[C@H](C)NC(=O)c1cc(Cl)cc(C)c1NC(=O)c1cc(Cn2nnc(C(F)(C(F)(F)F)C(F)(F)F)n2)nn1-c1ncccc1Cl` [Example 361], the chromatographic logP in data set [1] (setting [8]) was found to be 4.39. The pest or weed control at 100 g/ha in data set [2], in data set [3] (setting [6]) and in data set [4] (setting [7]) was no less than 80% in each case.
In data set [1] (log P), `Cc1cc(F)cc(C(=O)NC(C)(C)C)c1NC(=O)c1cc(Cn2nnc(C(F)F)n2)nn1-c1ncccc1Cl` [Example 308] showed a chromatographic logP of 2.9. The pest or weed control at 100 g/ha in data set [2], in data set [3] (in Zea mays) and in data set [4] (in Brassica rapa) was no less than 80% in each case.
As to `Cc1cc(C#N)cc(C(=O)NCC2CC2)c1NC(=O)c1cc(Cn2nnc(C(F)(F)F)n2)nn1-c1ccccc1Cl` [Example 440], in data set [1] (setting [5]), the chromatographic logP was 3.61. For the same compound, the pest or weed control at 100 g/ha in data set [2], in data set [3] (setting [6]) and in data set [4] (setting [7]) was no less than 80% each time.
In data set [1] (log P), `Cc1cc(F)cc(C(=O)NC(C)C2CC2)c1NC(=O)c1cc(Cn2nnc(C(F)(F)F)n2)nn1-c1ncccc1Cl` (stereo not shown) [Example 32] yielded a chromatographic logP of 3.41. For the same compound, the pest or weed control at 100 g/ha in data set [2], in data set [3] (in Zea mays) and in data set [4] (in Brassica rapa) was no less than 80% in each case.
As to `Cc1cc(C#N)cc(C(=O)NC(C)C)c1NC(=O)c1cc(Cn2nnc(C(F)F)n2)nn1-c1ncccc1Cl` [Example 266], the chromatographic logP in data set [1] (log P) stood at 2.58. Also, the pest or weed control at 100 g/ha in data set [2], in data set [3] (in Zea mays) and in data set [4] (in Brassica rapa) was no less than 80% each time.
For the compound `Cc1cc(C#N)cc(C(=O)NC(C)C)c1NC(=O)c1cc(Cn2nnnc2C(F)F)nn1-c1ncccc1Cl` [Example 463], in data set [1] (log P), the chromatographic logP came out at 2.36. Also, the pest or weed control at 100 g/ha in data set [2], in data set [3] (in Zea mays) and in data set [4] (in Brassica rapa) was no less than 80% throughout.
With `CNC(=O)c1cc(C#N)cc(C)c1NC(=O)c1cc(Cn2nnc(C(F)(F)F)n2)nn1-c1c(Cl)cccc1Cl` [Example 312], in data set [1] (setting [8]), the chromatographic logP was determined as 3.28. In addition, the pest or weed control at 100 g/ha in data set [2], in data set [3] (setting [6]) and in data set [4] (setting [7]) was no less than 80% in each case.
